Laboratory results taken from ChEMBL document CHEMBL5380778, “Structure-Directed Discovery of Potent Soluble Epoxide Hydrolase Inhibitors for the Treatment of Inflammatory Diseases” (J Med Chem, 2023).

Assays:
[1] = target: T1, Bifunctional epoxide hydrolase 2 (Homo sapiens, UniProt P34913); assay: Inhibition of recombinant human soluble epoxide hydrolase using PHOME as substrate assessed as 6-methoxynaphthaldehyde product formation preincubated with compound for 10 mins followed by substrate addition and measured by fluorescence based analysis
T1 sequence (P34913 whole entry): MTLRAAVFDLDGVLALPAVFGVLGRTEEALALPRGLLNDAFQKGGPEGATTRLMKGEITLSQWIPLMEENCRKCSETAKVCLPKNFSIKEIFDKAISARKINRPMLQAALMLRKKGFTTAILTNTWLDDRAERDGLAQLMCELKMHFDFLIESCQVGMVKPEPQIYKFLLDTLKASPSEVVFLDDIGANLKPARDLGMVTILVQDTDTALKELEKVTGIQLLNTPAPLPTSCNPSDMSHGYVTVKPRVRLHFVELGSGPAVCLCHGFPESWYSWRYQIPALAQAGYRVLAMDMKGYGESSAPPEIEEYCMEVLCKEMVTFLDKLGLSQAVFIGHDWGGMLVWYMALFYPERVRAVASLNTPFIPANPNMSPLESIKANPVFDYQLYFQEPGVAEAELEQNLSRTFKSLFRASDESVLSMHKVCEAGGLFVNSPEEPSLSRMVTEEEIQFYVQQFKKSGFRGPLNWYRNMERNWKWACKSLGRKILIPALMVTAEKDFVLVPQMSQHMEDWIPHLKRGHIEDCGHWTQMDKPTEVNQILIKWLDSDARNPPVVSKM

[2] = target: T2, Bifunctional epoxide hydrolase 2 (Mus musculus, UniProt P34914); assay: Inhibition of recombinant mouse soluble epoxide hydrolase using PHOME as substrate assessed as 6-methoxynaphthaldehyde product formation preincubated with compound for 10 mins followed by substrate addition and measured by fluorescence based analysis
T2 sequence (P34914 whole entry): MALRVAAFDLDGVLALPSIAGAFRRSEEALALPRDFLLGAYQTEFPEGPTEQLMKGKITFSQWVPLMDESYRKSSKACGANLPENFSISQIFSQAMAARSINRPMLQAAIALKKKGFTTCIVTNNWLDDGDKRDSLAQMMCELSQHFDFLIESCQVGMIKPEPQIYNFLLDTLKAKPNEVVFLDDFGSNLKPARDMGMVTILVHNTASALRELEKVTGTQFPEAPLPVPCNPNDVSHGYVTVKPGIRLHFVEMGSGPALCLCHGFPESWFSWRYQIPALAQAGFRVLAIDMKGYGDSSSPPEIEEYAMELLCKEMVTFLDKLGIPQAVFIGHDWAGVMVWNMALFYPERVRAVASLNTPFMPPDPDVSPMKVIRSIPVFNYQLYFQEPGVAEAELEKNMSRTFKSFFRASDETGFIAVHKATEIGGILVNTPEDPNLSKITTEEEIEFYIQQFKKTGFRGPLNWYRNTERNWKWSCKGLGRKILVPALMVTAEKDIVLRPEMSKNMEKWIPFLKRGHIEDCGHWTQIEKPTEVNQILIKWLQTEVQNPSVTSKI

Row | Compound | IC50 [1] [nM] | IC50 [2] [nM]
1 | CCC(=O)N1CCC(CC(=O)N2CCCN(C(=O)c3ccc(NC(=O)N[C@@]45C[C@@H]6C[C@@](C)(C[C@@](C)(C6)C4)C5)c(F)c3)CC2)CC1 | 0.9 | 0.39
2 | CC(O)CNC(=O)C1CCN(C(=O)c2ccc(NC(=O)N[C@@]34C[C@@H]5C[C@@](C)(C[C@@](C)(C5)C3)C4)c(F)c2)CC1 (stereo partly drawn) | 4.5 | 0.18
3 | C[C@]12C[C@@H]3C[C@](C)(C1)C[C@@](NC(=O)Nc1ccc(C(=O)N4CCC(C(=O)NCCO)CC4)cc1F)(C3)C2 | 3.43 | 0.26
4 | C[C@]12C[C@@H]3C[C@](C)(C1)C[C@@](NC(=O)Nc1ccc(C(=O)NC4CCC(C(=O)NCCO)CC4)cc1F)(C3)C2 (stereo partly drawn) | 0.8 | 0.18
5 | CCN(CC)C(=O)C1CCN(C(=O)c2ccc(NC(=O)N[C@@]34C[C@@H]5C[C@@](C)(C[C@@](C)(C5)C3)C4)c(F)c2)CC1 | 2.2 | 0.53
6 | C[C@]12C[C@@H]3C[C@](C)(C1)C[C@@](NC(=O)Nc1ccc(CN4CCCC(C(=O)NC(CO)(CO)CO)C4)cc1F)(C3)C2 (stereo partly drawn) | 0.14 | 0.32
7 | C[C@]12C[C@@H]3C[C@](C)(C1)C[C@@](NC(=O)Nc1ccc(CN4CCCC(C(=O)N5CCCN(C(=O)C6CC6)CC5)C4)cc1F)(C3)C2 (stereo partly drawn) | 0.42 | 0.8
8 | C=CC(=O)N1CCCN(C(=O)C2CCCN(Cc3ccc(NC(=O)N[C@@]45C[C@@H]6C[C@@](C)(C[C@@](C)(C6)C4)C5)c(F)c3)C2)CC1 (stereo partly drawn) | 0.42 | 1.1
9 | C[C@]12C[C@@H]3C[C@](C)(C1)C[C@](NC(=O)Nc1ccc(C(=O)N4CCCC(C(=O)NCCO)C4)cc1F)(C3)C2 (stereo partly drawn) | 0.35 | 0.15
10 | CC(O)CNC(=O)C1CCCN(Cc2ccc(NC(=O)N[C@@]34C[C@@H]5C[C@@](C)(C[C@@](C)(C5)C3)C4)c(F)c2)C1 (stereo partly drawn) | 0.28 | 0.58
11 | C[C@]12C[C@@H]3C[C@](C)(C1)C[C@@](NC(=O)Nc1ccc(CN4CCCC(C(=O)NCCO)C4)cc1F)(C3)C2 (stereo partly drawn) | 0.63 | 0.18
12 | C[C@]12C[C@@H]3C[C@](C)(C1)C[C@@](NC(=O)Nc1ccc(CN4CCC(C(=O)N(CCO)CCO)CC4)cc1F)(C3)C2 | 6.72 | 0.55
13 | CC(C)(C)OC(=O)N1CCN(CCNC(=O)C2CCC(NC(=O)c3ccc(NC(=O)N[C@@]45C[C@@H]6C[C@@](C)(C[C@@](C)(C6)C4)C5)c(F)c3)CC2)CC1 (stereo partly drawn) | 183 | 2
14 | C[C@]12C[C@@H]3C[C@](C)(C1)C[C@@](NC(=O)Nc1ccc(C(=O)N4CCCC(C(=O)O)C4)cc1F)(C3)C2 (stereo partly drawn) | 4.6 | 1.3
15 | C[C@]12C[C@@H]3C[C@](C)(C1)C[C@@](NC(=O)Nc1ccc(CN4CCCC(C(=O)O)C4)cc1F)(C3)C2 (stereo partly drawn) | 2.3 | 0.61
16 | C[C@]12C[C@@H]3C[C@](C)(C1)C[C@@](NC(=O)Nc1ccc(CN4CCC(C(N)=O)CC4)cc1F)(C3)C2 | 1.54 | 0.06
17 | C[C@]12C[C@@H]3C[C@](C)(C1)C[C@@](NC(=O)Nc1ccc(CN4CCCC(C(=O)NC(CO)CO)C4)cc1F)(C3)C2 (stereo partly drawn) | 0.28 | 0.35
18 | C[C@]12C[C@@H]3C[C@](C)(C1)C[C@@](NC(=O)Nc1ccc(C(=O)NC4CCC(C(N)=O)CC4)cc1F)(C3)C2 (stereo partly drawn) | 0.84 | 0.35
19 | CC(CN(C)C)N1CCC(CC(=O)N2CCCN(C(=O)c3ccc(NC(=O)N[C@@]45C[C@@H]6C[C@@](C)(C[C@@](C)(C6)C4)C5)c(F)c3)CC2)CC1 (stereo partly drawn) | 19.6 | 0.8
20 | C[C@]12C[C@@H]3C[C@](C)(C1)C[C@@](NC(=O)Nc1ccc(C(=O)NC4CCC(C(=O)NC(CO)CO)CC4)cc1F)(C3)C2 (stereo partly drawn) | 0.91 | 0.55
21 | C[C@]12C[C@@H]3C[C@](C)(C1)C[C@@](NC(=O)Nc1ccc(C(=O)N4CCCC(C(=O)N5CCN(CCO)CC5)C4)cc1F)(C3)C2 (stereo partly drawn) | 0.84 | 0.15
22 | CC(O)CNC(=O)C1CCN(Cc2ccc(NC(=O)N[C@@]34C[C@@H]5C[C@@](C)(C[C@@](C)(C5)C3)C4)c(F)c2)CC1 (stereo partly drawn) | 6 | 0.47

Row | Compound | IC50 [1] [nM] | IC50 [2] [nM]
23 | C[C@]12C[C@@H]3C[C@](C)(C1)C[C@@](NC(=O)Nc1ccc(C(=O)NC4CCC(C(=O)NC(CO)(CO)CO)CC4)cc1F)(C3)C2 (stereo partly drawn) | 0.35 | 0.12
24 | C[C@]12C[C@@H]3C[C@](C)(C1)C[C@@](NC(=O)Nc1ccc(C(=O)NC4CCC(C(=O)N(CCO)CCO)CC4)cc1F)(C3)C2 (stereo partly drawn) | 2.94 | 0.23
25 | CCC(=O)N1CCC(CC(=O)N2CCCN(Cc3ccc(NC(=O)N[C@@]45C[C@@H]6C[C@@](C)(C[C@@](C)(C6)C4)C5)c(F)c3)CC2)CC1 | 0.33 | 0.07
26 | C[C@]12C[C@@H]3C[C@](C)(C1)C[C@@](NC(=O)Nc1ccc(CN4CCCC(C(N)=O)C4)cc1F)(C3)C2 (stereo partly drawn) | 0.14 | 0.09
27 | C[C@]12C[C@@H]3C[C@](C)(C1)C[C@@](NC(=O)Nc1ccc(CN4CCC(C(=O)NC(CO)CO)CC4)cc1F)(C3)C2 | 31.6 | 2.25
28 | C[C@]12C[C@@H]3C[C@](C)(C1)C[C@@](NC(=O)Nc1ccc(CN4CCCC(C(=O)N(CCO)CCO)C4)cc1F)(C3)C2 (stereo partly drawn) | 0.28 | 0.29
29 | CCC(=O)N1CCCN(C(=O)C2CCCN(C(=O)c3ccc(NC(=O)N[C@@]45C[C@@H]6C[C@@](C)(C[C@@](C)(C6)C4)C5)c(F)c3)C2)CC1 (stereo partly drawn) | 0.56 | 0.58
30 | CC(=O)N1CCC(CC(=O)N2CCCN(Cc3ccc(NC(=O)N[C@@]45C[C@@H]6C[C@@](C)(C[C@@](C)(C6)C4)C5)c(F)c3)CC2)CC1 | 0.49 | 0.11
31 | CC(O)CNC(=O)C1CCCN(C(=O)c2ccc(NC(=O)N[C@]34C[C@@H]5C[C@@](C)(C[C@@](C)(C5)C3)C4)c(F)c2)C1 (stereo partly drawn) | 0.28 | 0.23
32 | CCN(CC)C(=O)C1CCCN(C(=O)c2ccc(NC(=O)N[C@]34C[C@@H]5C[C@@](C)(C[C@@](C)(C5)C3)C4)c(F)c2)C1 (stereo partly drawn) | 0.35 | 0.38
33 | CCC(C)C(=O)N1CCC(CC(=O)N2CCCN(Cc3ccc(NC(=O)N[C@@]45C[C@@H]6C[C@@](C)(C[C@@](C)(C6)C4)C5)c(F)c3)CC2)CC1 (stereo partly drawn) | 0.77 | 0.16
34 | CCC(C)C(=O)N1CCCN(C(=O)C2CCCN(C(=O)c3ccc(NC(=O)N[C@@]45C[C@@H]6C[C@@](C)(C[C@@](C)(C6)C4)C5)c(F)c3)C2)CC1 (stereo partly drawn) | 1.4 | 0.9
35 | CC(=O)N1CCCN(C(=O)C2CCCN(C(=O)c3ccc(NC(=O)N[C@@]45C[C@@H]6C[C@@](C)(C[C@@](C)(C6)C4)C5)c(F)c3)C2)CC1 (stereo partly drawn) | 0.6 | 0.26
36 | C[C@]12C[C@@H]3C[C@](C)(C1)C[C@@](NC(=O)Nc1ccc(C(=O)NC4CCC(C(=O)N5CCC(CCO)CC5)CC4)cc1F)(C3)C2 (stereo partly drawn) | 16 | 0.53
37 | C[C@]12C[C@@H]3C[C@](C)(C1)C[C@@](NC(=O)Nc1ccc(CN4CCC(C(=O)NC(CO)(CO)CO)CC4)cc1F)(C3)C2 | 6.51 | 0.12
38 | C=C(C)C(=O)N1CCC(CC(=O)N2CCCN(C(=O)c3ccc(NC(=O)N[C@@]45C[C@@H]6C[C@@](C)(C[C@@](C)(C6)C4)C5)cc3)CC2)CC1 | 1 | 0.13
39 | CCN(CC)C(=O)C1CCCN(Cc2ccc(NC(=O)N[C@@]34C[C@@H]5C[C@@](C)(C[C@@](C)(C5)C3)C4)c(F)c2)C1 (stereo partly drawn) | 0.35 | 0.56
40 | C[C@]12C[C@@H]3C[C@](C)(C1)C[C@@](NC(=O)Nc1ccc(CN4CCCC(C(=O)N5CCN(CCO)CC5)C4)cc1F)(C3)C2 (stereo partly drawn) | 0.98 | 0.55
41 | CN(C)C(=O)C1CCCN(Cc2ccc(NC(=O)N[C@@]34C[C@@H]5C[C@@](C)(C[C@@](C)(C5)C3)C4)c(F)c2)C1 (stereo partly drawn) | 0.7 | 0.12
42 | CCC(C)C(=O)N1CCCN(C(=O)C2CCCN(Cc3ccc(NC(=O)N[C@@]45C[C@@H]6C[C@@](C)(C[C@@](C)(C6)C4)C5)c(F)c3)C2)CC1 (stereo partly drawn) | 0.25 | 0.62
43 | C=C(C)C(=O)N1CCCN(C(=O)C2CCCN(Cc3ccc(NC(=O)N[C@@]45C[C@@H]6C[C@@](C)(C[C@@](C)(C6)C4)C5)c(F)c3)C2)CC1 (stereo partly drawn) | 0.9 | 1.3
44 | CC(O)CNC(=O)C1CCC(NC(=O)c2ccc(NC(=O)N[C@@]34C[C@@H]5C[C@@](C)(C[C@@](C)(C5)C3)C4)c(F)c2)CC1 (stereo partly drawn) | 1.54 | 0.44
